Experimental findings from patent US7510825B2, “Kits and methods for detection of apoptotic cells” (NST NeuroSurvival Technologies Ltd, priority 2000, dated 2009) are described below.

Structures are written as SMILES. Bounds are passed on as bounds.

In experiment [1] the test system is cardiomyocytes of the ischemic heart. The experiment in a line: Detection by DDC of ischemic damage in the heart following ischemia-reperfusion. The class given is in vivo, mice. The conditions noted are these: ischemia 40 minutes, reperfusion 90 minutes; DDC at onset of ischemia. The procedure: Ischemia/Reperfusion was induced in male Swiss mice by ligation and subsequent release of a suture around the left anterior descending coronary artery. Ischemia was for 40 minutes followed by reperfusion of 90 minutes. DDC was injected to the Jugular vein at the onset of ischemia. Uptake of DDC was followed at real time in the beating heart using a Laica stereomycroscope. Pictures were taken at the end point of the reperfusion (90 minutes) and collected by Hamamatsu CCD camera. For inhibition by caspase inhibitors, animals were injected with a pan-Caspase inhibitor in two doses of 10 mg/kg given at the time of reperfusion. […] Figures (C) and (D) Cryosections prepared from the heart that was collected at the end point of the experiments DDC fluorescence can be viewed in single apoptotic cardiomyocites. This example support the role of DDC in detecting ischemic cells in the level of a single apoptotic cell.

The test system of experiment [2] is red blood cells (RBC). The experiment in a line: Selective binding of DDC to activated red blood cells, flow cytometry. Format: cell-based. Particulars: DDC 500 μM. The procedure: Activation of intact RBC, was induced by a combined treatment with N-ethylmaleimide (NEM) and calcium ionophore, in the presence of Ca 2+.
Fresh RBC were obtained, diluted to 0.1 of their initial volume with buffer A (143 mM NaCl; 2 mM KCl; 0.1% Glucose; 10 mM NaH2PO4; pH=7.4), and washed 4 times in the above buffer. Cells were then re-suspended in buffer B (55 mM NaCl; 90 mM KCl, 0.1% glucose, 10 mM HEPES; pH=7.4). These cells were thereafter used as control cells. For activation, the cells were treated for 15-60 min at 37° C. with a combination of 2 mM CaCl, 5 μM of the Calcium ionophore A23187 and 5 mm of NEM. Cells were then washed twice with buffer B containing 0.1% of bovine serum albumin, and finally re-suspended in Buffer B containing 2 mM CaCl2 For examination of binding of DDC to the cells, DDC was dissolved in 0.1M NaPPi, pH=7.4, at a stock concentration of 1 mM. Binding assays were performed at a final concentration of 500 μM, and level of binding was evaluated by flow cytometry.
For orientation: A flow cytometer gives signals particle by particle.

Experiment [3] relates to C26 colon carcinoma cells. The experiment can be described thus: Time course of DDC binding to C26 colon carcinoma cells treated with BiCNU. Format: cell-based. Particulars: 0.5 mM BiCNU for 2 hr. Here is the method: For microscopic analysis the concentration of cells should be within 1-2×10^7/ml. […] If fixation is needed, it should be performed after DDC staining. • 1. Adjusting the cells to 1-2×10^7/ml in buffer. • 2. Transferring 96 μl from the cell suspension to an eppendorf and staining the cells by adding 4 μl from the DDC solution. Incubating for 10-40 minutes at RT protected from light. • 3. A double labeling could be conducted with PI, if desired. In such a case, 1 μl is added from the PI solution. • 4, Placing the cell suspension on a glass slide. Covering the cells with a glass coverslip. Alternatively, for analyzing adherent cells, cells may grow directly on coverslip. Staining the cells by incubation with DDC (4 μl of DDC/96 μl buffer reaction) or 10-40 minutes and PI (1 μl). Covering the slide with a coverslip and visualizing the cells. If desired, at that point the cells can be washed and fixed in 1% formaldehyde before visualization. Mounting should be done in a solution of 50% glycerol/PBS (v/v). • 5. Observing the cells under fluorescent or confocal microscope equipped with the appropriate UV filter (excitation at 360-370 nm, band pass, and emission at 420 nm, barrier filter. Using a Triple filter (Hoechst/FITC/Texas Red) allows concomitant observation of both DDC and PI. Quantitative Assay for DDC Accumulation using Fluorescene Spectroscopy […]

The subject of experiment [4] is platelets. The experiment in a line: Selective binding of DDC to activated platelets, flow cytometry. The class given is cell-based. Particulars: 10 μM DDC for 5 minutes. The procedure:
The selective binding of DDC to activated platelets was determined using flow cytometric (FACS) analysis. Platelet-rich plasma was obtained from healthy volunteers. 10^9 of the fresh platelets were centrifuged (5 minutes, 380×g), washed and re-suspended in Tyrode's buffer (137 mM NaCl; 2.8 mM KCl; 1 mM MgCl2, 12 mM NaHCO3; 0.4 mM Na2HPO4; 5.5 mM D-glucose and 10 mM Hepes pH 7.4; 0.35% BSA). The purified platelets were kept on ice, and served as controls.
For activation, 200 μl of washed platelets were incubated with a mixture of 0.05 units/ml of thrombin and 5 μg/ml collagen for 5 min. at 37°, in the presence of 2 mM CaCl2 in a final volume of 1 ml. Following incubation, the platelets were centrifuged (2 min. at 10^4 rpm) and resuspended in 1 ml of Tyrode's buffer.
Activated and control non-treated platelets were incubated with 10 μM of DDC for 5 minutes at room temperature. […] Excitation was at 360 nm and emission was measured at 530 nm. […] While only a small fraction of the control platelets manifested binding of DDC (3.6% of the population), platelet activation caused 81% of the platelet population to acquire a marked DDC binding, reflected as a distinct shift to higher fluorescence intensity. As shown in tile FACS histogram in FIG. 21B, activation was associated with a major shift of the whole platelet population to higher fluorescence intensity. […]

Consider `CN(C)c1cccc2c(S(=O)(=O)NC(CSSCC(NS(=O)(=O)c3cccc4c(N(C)C)cccc34)C(=O)O)C(=O)O)cccc12` (stereo not drawn) [DDC], for which, in experiment [1], the “uptake of DDC in cardiomyocytes” value is on record as “identified in individual cadiomyocites”. Also, the “staining of red blood cells with DDC” value is listed as “substantial shift to higher fluorescence levels” in experiment [2] (RBC activated by NEM, calcium ionophore A23187 and Ca2+); “did not stain significantly” in experiment [2] (intact RBC). Further, the “time to staining of apoptotic cells” value in experiment [3] was at most 40 s. Also, the “fraction of platelet population binding DDC” value in experiment [4] (control platelets) amounted to 3.6%; in experiment [4] (platelets activated by thrombin and collagen), 81%.
